Test results as given in patent publication US20080280810A1, “PEPTIDES HAVING AFFINITY FOR BODY SURFACES” (priority 2006, published 2008).

Assays:
[1] = Color retention after shampoo treatment, peptide as sealant with Basic Red 2 dye; parameters: species or system human; conditions: 0.25 wt % Basic Red 2, peptide 0.25 wt %, 60 min contact, after 10 shampoo treatments; dye alone 29.70
Procedure: The peptides used in this Example were prepared as described in Examples 1 and 2. The color retention was quantified using a spectrophotometric measurement technique. A peptide given as SEQ ID NO:41 or SEQ ID NO:42 (38 mg), produced via fermentation as described in Examples 1 and 2, was added to 15 g of an aqueous 0.25 wt % solution of Basic Red 2 (Abbey Color, Philadelphia, Pa.) and the solution was allowed to stir for 1 h. A natural white hair tress (1 cm wide, potted, International Hair Importers & Products Inc., Bellerose, N.Y.) was inserted into a 15 mm×125 mm test tube and 13 mL of the peptide/dye mixture was injected into the test tube. The hair tress was immersed in contact with the colorant solution for 60 min and the colorant solution was agitated using a magnetic stirrer. The tress was removed, allowed to drip dry, and then air dried for 30 min. The hair tress was then subjected to a water rinse using copious amounts of deionized water, followed by a shampoo treatment with embrocation for 30 seconds. The shampoo treatment involved the application of Pantene Pro-V Sheer Volume shampoo (Proctor & Gamble, Cincinnati, Ohio) to the hair as follows. […] The color intensity after the shampoo was measured as described in Examples 4-7.

[2] = Co-application of multi-block peptide with semi-permanent dye (Arianor Ebony), color retention; parameters: species or system human; key: ΔE of peptide sample minus peptide-free control; larger = better retention; conditions: difference in Delta E between peptide sample and peptide free control after 3 embrocation cycles (about 12 manual shampoos); pH 8.5-9.0; >2 benefit, >4 substantial benefit
Procedure: A 0.5% aqueous solution of Arianor Ebony (Sensient Technologies Corp, Milwaukee, Wis.) containing 3% benzyl alcohol and 0.05% diazolidinyl urea (biocide) was prepared. Dye insolubles were removed by filtration and the pH of the dye solution was adjusted to 8.50-9.0, using ethanolamine.
Approximately 1 mL of the dye solution was added to selected wells of a 24-well plate (Thomson Instrument Co., Oceanside, Calif.; part # 931565). A multi-block peptide (see Table 12) was dissolved in a solution consisting of 3 wt % benzyl alcohol and 95 wt % water to yield a peptide concentration of 2 wt % or approximately 20 mg/mL. The pH was adjusted to 8.5-9.0 using ethanolamine. The peptide solution was then pipetted into test wells containing dye solution in the amount of 1 mL or 0.2 mL respectively. The total volume in each test well was then adjusted to 2 mL where necessary using 3% aqueous benzyl alcohol (pH adjusted to 8.5-9.0 with ethanolamine). Peptide free controls consisted of 1 mL of dye solution diluted to 2 mL with the pH adjusted aqueous benzyl alcohol solution.
Baseline […] readings were made on one inch long tresses (see below) using an X-RITE® SP78™ Sphere Spectrophotometer (X-Rite, Inc., Grandville, Mich.), by placing the hair tress into the photosensor and calculating L*, a* and b* parameters representing the photometer response. All measurements were the average of three individual determinations.
The tresses (potted on one end with resin) of natural white, 85% gray or regular bleached hair (International Hair Importers and Products, Bellerose, N.Y.) were immersed in the peptide/dye solution and the entire well plate was agitated on a VORTEX-GENIE® 2 Mixer (Scientific Industries, Bohemia, N.Y.) at a speed setting of 1 for 30 minutes. The tresses were removed from the wells, rinsed for 30 seconds under flowing deionized water and then air dried.
The following complement of beads was then added to each well containing a hair tress: (8 beads in all; 4 Novagen Coli Rollers Plating Beads—sterilized (EMD Biosciences, San Diego, Calif.; Catalog No. 71013), 2 BioSpec 6.35 mm glass beads (BioSpec Products, Bartlesville, Okla.; Catalog No. 11079635), and 2 BioSpec 3.2 mm Stainless Steel Bead (Catalog No. 11079132ss).
Then 2.5 mL of aqueous 50% Pantene Pro V® shampoo (Proctor & Gamble Co., Cincinnati, Ohio) was pipetted into each well. The plate was placed on a VWR® VX-2500 Multi-tube Vortexer (VWR, West Chester, Pa.) for 5 minutes to simulate shampooing with embrocation. The hair tresses were then rinsed under flowing deionized water and air dried. This cycle was repeated two more times except that the length of time was 10 minutes for both subsequent embrocation cycles. (This treatment was previously determined to simulate approximately 12 manual shampoo cycles.) At the conclusion of the third embrocation cycle L*, a* and b* values were measured and Delta E values (ΔE) were calculated using equation 1 below:
where L*=the lightness variable and a* and b* are the chromaticity coordinates of CIELAB colorspace as defined by the International Commission of Illumination (CIE) (Minolta, Precise Color Communication—Color Control From Feeling to Instrumentation, Minolta Camera Co., 1996).
The Delta E value (ΔE) indicates color retention relative to the non-dyed hair and larger Delta E values indicate better performance. Values listed in the table represent the difference in Delta E values between the peptide-containing sample and the peptide free control. This difference is indicative of color retention after shampoo or water rinse treatments and positive values indicate better performance relative to the peptide free controls (Table 12).

Row | Substance | Delta E [1] | ΔE Retention Ebony Dye Regular Bleached Hair [2] | ΔE Retention Ebony dye with Natural White Hair [2]
1 | P-EQISGSLVAAPW-KRKRK-D (PEQISGSLVAAPWKRKRKD; Peptide having affinity for hair) [HC 74] | 33.64 | 0.1 | 8.5
2 | P-TPPELLHGAPRS-KRKRK-D (PTPPELLHGAPRSKRKRKD; Peptide having affinity for hair) [HC 71] | 32.36 | 1.9 | 5.2
